Data set [1] in a line: Body weight and clinical signs of nude mice bearing H1975-HGF xenografts. It counts as in vivo. The conditions noted are these: H1975-HGF model, n=10/group; unclear whether due to tumor burden or treatment.
Procedure: (§1) Female athymic nude mice were used in the studies (n=10/group). Treatment began when SC tumors reached approximately 100 to 300 mm^3 in size. and dosing was initiated according to the treatment plan summarized in Table 2. […] The control group was dosed with vehicle orally daily for 21 days, and the isotype control antibody was dosed twice a week IP for 3 weeks. Mice were monitored for body weight and tumor volume up to Day 95, and were euthanized when individual tumor volume reached 2,000 mm^3 or at study conclusion.
(§2) Relative body weight of individual mice was calculated using the formula: (W/W0)×100, where ‘W’ represents body weight on a particular day, and ‘W0’ represents body weight at initiation of treatment. Body weight was graphically represented as mean % of initial body weight±SEM.
Tumor volume and body weight data were graphically represented using Prism software (GraphPad, version 7). Statistical significance was evaluated for all pairwise comparisons on the last day of the study when at least eight mice remained in each group. Differences between groups were considered significant when p≤0.05. Statistical significance of tumor volume and body weight was calculated using the Linear Mixed-Effects analysis in R software version 3.4.2 (using Janssen's internally developed Shiny application version 3.3), with treatment and time as fixed effects and animal as random effect. […]
Data set [2] in a line: Body weight and clinical signs of nude mice bearing H1975 xenografts. The note with it: for body weight loss compared to the control group: H1975-xenograft-bearing nude mice, Day 29, 10 mg/kg; for animals euthanized due to negative clinical signs: H1975 model, n=10/group, unclear whether due to tumor burden or treatment.
Procedure: The mice were housed on irradiated Enrich-o'cobs™ Laboratory Animal Bedding in static microisolators on a 12-hour light cycle at 20-22° C. (68-72° F.) and at 40-60% humidity.
as §1, §2
Tumor volume and body weight data were graphically represented using Prism software (GraphPad, version 7). Statistical significance was evaluated for all pairwise comparisons on the last day of the study when at least eight mice remained in each group. Differences between groups were considered significant when p≤0.05. Statistical significance of tumor volume and body weight was calculated using the Linear Mixed-Effects analysis in R software version 3.4.2 (using Janssen's internally developed Shiny application version 3.3), with treatment and time as fixed effects and animal as random effect. Logarithmic transformation (base 10) was performed if individual longitudinal response trajectories were not linear. The information derived from this model was used to make pairwise treatment comparisons to the control group or between all the treatment groups.
The subject of data set [3] is EGFR mutation positive (EGFRm+) advanced NSCLC. Briefly: Clinical Trial No. NCT03046992, phase I/II lazertinib monotherapy. The note with it: for ORR, (%): T790M+ patients. The data set is classed as in vivo, human. An excerpt: Clinical Trial No. NCT03046992 was primarily designed to evaluate the safety, tolerability, and efficacy of YH25448 in patients with EGFR mutation positive (EGFRm+) advanced NSCLC with or without asymptomatic brain metastasis who progressed following prior therapy with an EGFR TKIs agent.
Patients with advanced and metastatic NSCLC who had progressed after treatment with EGFR-TKIs with/without asymptomatic brain metastases (BM) were enrolled in an open-label, multicenter, phase I/II study with dose-escalation and expansion cohorts. Lazertinib was administered once daily at doses between 20 to 320 mg in a 21-day cycle. Patients were assessed for safety, tolerability, pharmacokinetics and efficacy. T790M status was confirmed in the dose-expansion cohorts.

Data set [4] deals with EGFR Dell9/T790M mutant lung adenocarcinoma. The conditions noted are these: one patient, 40 mg daily, cited from earlier work.
For data set [5], the system named is H1975 human lung xenografts. Description: H1975 human lung carcinoma xenograft model, antitumor activity.
Procedure: The animals were fed ad libitum water (reverse osmosis, 1 ppm Cl) and NIH 31 Modified and Irradiated Lab Diet® consisting of 18.0% crude protein, 5.0% crude fat, and 5.0% crude fiber. The mice were housed on irradiated Enrich-o'cobs™ Laboratory Animal Bedding in static microisolators on a 12-hour light cycle at 20-22° C. (68-72° F.) and at 40-60% humidity. All studies complied with the recommendations of the Guide for Care and Use of Laboratory Animals with respect to restraint, husbandry, surgical procedures, feed and fluid regulation, and veterinary care. […]
On the day of implant, the NCI-H1975 cells were harvested during log phase growth and resuspended in phosphate buffered saline (PBS) at a concentration of 5×10^7 cells/mL. Xenografts were initiated by subcutaneously implanting 5×10^6 NCI-H1975 cells per animal (0.1 mL suspension) into the right flank of each test animal and tumors were monitored as their volumes approached the target range of 150-200 mm^3. Fifteen days later, animals were sorted into bins by calculated tumor volumes based on vernier caliper measurements of tumor width and length to the nearest mm. […] Tumor size, in mm3, was calculated using the following formula: Tumor Volume=(w^2×l)/2 where w=width and l=length, in mm, of the tumor. […]
The subject of a further data set is H1975-HGF xenografts. Description: H1975-HGF human lung carcinoma xenograft model, antitumor activity. Background: A xenograft is tissue or cells of one species grown in another, often human tumour cells in immunodeficient mice.
The test system of the next data set is advanced NSCLC. Briefly: Study 61186372EDI1001, Phase 1 first-in-human dose escalation of JNJ-61186372 as monotherapy and in combination with lazertinib. The data set is classed as in vivo.
Setting [6] is: monotherapy, EGFR-mutated NSCLC.
[7] abbreviates: Day 28, as compared to controls, 10 mg/kg.

On to `C=CC(=O)Nc1cc(Nc2nccc(-c3cn(C)c4ccccc34)n2)c(OC)cc1N(C)CCN(C)C` [Osimertinib, osimertinib, reference compound], for which the “mice found dead or euthanized due to negative clinical signs” value in data set [1] is listed as “One”. The “body weight loss compared to the control group” value in data set [2] is listed as “some transient body weight loss”.

As to `C=CC(=O)Nc1cc(Nc2nccc(-n3cc(CN(C)C)c(-c4ccccc4)n3)n2)c(OC)cc1N1CCOCC1` [Lazertinib, N-(5-(4-(4-((dimethylamino)methyl)-3-phenyl-1H-pyrazol-1-yl)pyrimidin-2-ylamino)-4-methoxy-2-morpholinophenyl)acrylamide], the systemic exposure entry in data set [3] (20 to 320 mg once daily) is listed as “increased dose-dependently”. Moreover, the ORR in data set [3] (93 T790M+ patients) came to 69%. Also, in data set [3] (115 patients), the TEAE constipation stood at 12%, the TEAE decreased appetite stood at 17%, the “TEAE of grade ≥3 hyponatraemia” value is listed as 2% and the “TEAE of grade ≥3 nausea” value is recorded as 2%. For the same compound, in data set [3] (115 patients), the “TEAE of grade ≥3 pneumonia” value stood at 2%, the TEAE pruritus was 19% and the TEAE rash was 14%. The tolerability entry in data set [3] (EGFR T790M+ NSCLC patients, multiple dose levels) is “well tolerated”. For the same compound, the “ORR, (%)” value in data set [3] (20 mg QD, 2 evaluable) is 100%. Besides, the “ORR, (%)” value in data set [3] (40 mg QD, 25 evaluable) is 68%. Besides, the “ORR, (%)” value in data set [3] (80 mg QD, 18 evaluable) was found to be 61%. In addition, the “ORR, (%)” value in data set [3] (120 mg QD, 22 evaluable) is given as 77%. The “ORR, (%)” value in data set [3] (160 mg QD, 18 evaluable) turned out to be 61%. Also, the “ORR, (%)” value in data set [3] (240 mg QD, 8 evaluable) is reported as 75%. Moreover, in data set [3] (dose-escalation cohort, 38 patients, 20 to 320 mg), the dose-limiting toxicities result is “No dose-limiting toxicities were observed”. The “objective response rate (ORR)” value in data set [3] (evaluable patients (n=110) at data cut-off, 20 to 320 mg once daily) is 65%. Also, the DLTs result in data set [3] (monotherapy FIH dose escalation, through 320 mg) is listed as “no DLTs were observed”. Further, the “dose from which clinical activity was demonstrated in the targeted population” value in data set [3] (setting [6]) amounted to 240 mg. The “intracranial ORR” value in data set [3] (patients with BM (n=12)) is given as 50%. Further, in data set [4] (tumor assessment after 6 weeks), the extracranial tumor reduction was 12.7%, the intracranial tumor reduction was 49.3% and the overall tumor reduction was 25.9%. In addition, the adverse events entry in data set [4] is listed as “without significant adverse events”. For the same compound, the “CR (complete tumor regression)” value in data set [5] (n=10/group, mice with CR) is recorded as 1 of 10. The “CR (complete tumor regression)” value in the data set on H1975-HGF xenografts (n=10/group, mice with CR) is given as 2 of 10. In addition, in data set [2], the “body weight loss compared to the control group” value is “some transient body weight loss” and the “animals euthanized due to negative clinical signs” value is listed as “One”.

By TGI is commonly meant the reduction of tumour growth relative to the control group. Lower therefore signals little slowing of growth. In the case of JNJ-372, the “mice found dead or euthanized due to negative clinical signs” value in data set [1] is “One”. Further, in the data set with advanced NSCLC (monotherapy FIH dose escalation, through 1400 mg), the DLTs result is reported as “no DLTs were observed”. Moreover, the “dose from which clinical activity was demonstrated in the targeted population” value with advanced NSCLC (setting [6]) was determined as 700 mg. Besides, the TGI is recorded as 86% in data set [5] (setting [7]) and 70% in the data set on H1975-HGF xenografts (setting [7]). In data set [2], the “animals euthanized due to negative clinical signs” value is “One”.

The values above are taken from patent US12599606B2, “Therapies with 3rd generation EGFR tyrosine kinase inhibitors” (Janssen Biotech, Inc., priority 2019, dated 2026).
